Experimental data: paper PMC7006816, “Human β-Defensin 2 Mediated Immune Modulation as Treatment for Experimental Colitis” (Frontiers in Immunology, 2020)
Where no end group is shown, it is not given here.

Experiments:
[1] = test system: C57BL/6 mice with DSS colitis; assay: DSS colitis model; assay type: in vivo, mouse; settings: 0.1 mg/kg s.c. once a day
Description: The DSS colitis study was performed by Farma-Cros Ibérica according to directive 86/609 EEC and approved by Novozymes science ethics committee. 7–8 weeks old male C57BL/6 mice were used (Charles River) and each group consisted of 10 animals. Animal allocation to all experimental groups was done in a randomized manner. Colitis was induced by supplementing the drinking water with 2% dextran sodium sulfate (DSS, 30–50 kDA, MP Biomedicals) for 7 days. On day 1 all mice were weighed and the drinking bottle was filled with the DSS solution, this solution was replaced on day 3 and 5. On day 8 the remaining solution was discarded and replaced with autoclaved water. Mice were divided into 3 groups. One group received PBS as sham treatment intravenously. One group received on day 1, 4, and 8, 300 μg/mouse of a mouse anti-TNF-α antibody (αTNF, Ramcon) intraperitoneally. The animals in the other group were dosed s.c. with 0.1 mg/kg hBD2 once a day, starting at day 1 until day 10. Animals were euthenized on day 10. Daily clinical assessment was carried out to calculate a validated clinical disease activity index (DAI) ranging from 0 to 4 according to the following parameters: body weight loss, presence or absence of rectal bleeding, stool consistency. One mouse in the DSS control group had to be euthanized before the end of the study.
Sections of the colon were taken from each animal and preserved in neutral buffered formaline for subsequent histological analysis. Sections were stained using haematoxylin and eosin for further scoring.

murine BM-DC's [2] = assay: Cytokine production by murine BM-DC's; assay type: cell-based, mouse; settings: n = 3
Description: (§1) BM-DC's were generated using granulocyte-macrophage colony-stimulating factor (GM-CSF) and RPMI-1640 medium (Merck) supplemented with 10% fetal calf serum (FBS; Life Technologies), 2 mM glutamine (Thermo Fisher), 100 U/ml penicillin/streptomycin (Gibco), 50 μM 2-mercaptoethanol (Roth), 1 mM sodium pyruvate (Biochrome), and 1x non-essential amino acids (Biochrome) as previously described ([28]). Shortly, 2 × 10^6 bone marrow cells flushed from the tibias and femurs of C57BL/6 mice were seeded in dishes containing 200 U/ml GM-CSF. After 3 days extra medium containing GM-CSF was added to the cells and on day 6 half of the medium was replaced by fresh […] containing GM-CSF. After 7 or 8 days slightly attached cells were harvested. Female C57BL/6JolaHsd mice were purchased from Janvier (St. Berthevin Cedex, France). Animal experiments were performed in strict accordance with the German regulations of the Society for Laboratory Animal Science (GV-SOLAS) and the European Health Law of the Federation of Laboratory Animal Science Associations (FELASA). The protocol was approved by the Regierungspräsidium Tübingen (Anzeige 09.01.2014).
2 × 10^5 murine BM-DC's or human Mo-DC's were seeded in 96-well round bottom plates. First they were pretreated with 100 ng/ml pertussis toxin (Sigma-Aldrich) or 5 μM of the CCR2 inhibitor RS 504393 (Tocris) and subsequently stimulated with 100 ng/ml LPS or 0.2 […] and 10 μg/ml or 100 μg/ml hBD2. 24 h later supernatants were collected and TNF-α [Biolegend (BM-DC's); R&D (Mo-DC's)] was analyzed according to the manufacturer's instructions. IL-10, IL-12, and IL-1β (LEGENDplex Biolegend) was as well-analyzed according to the manufacturer's instructions.

human primary PBMC's = assay: Stimulation of PBMCs of healthy volunteers with TLR ligands, cytokine release; assay type: cell-based; settings: hBD2 100, 40, 10 or 1 μg/ml, 24 h, cytometric bead array
Description: Heparinized blood was diluted 1/1 v/v with RPMI (Gibco) and was subjected to Ficoll-Paque Plus (GE healthcare) density centrifugation within 2 h of drawing. Plasma was collected from the top from individual donors and was kept on ice until it was used at 2% in the culture medium (autologous culture medium). Isolated PBMC's were re-suspended in autologous culture medium and seeded in 96-well culture plates with 115.500 cells per well (Figure 1) or 200.000 cells per well (Figure 2) in a total of 200 μl. […] The supernatants were collected after incubation at 37°C for 24 h, and stored at −80°C until cytokine measurement.
The experiment in Figure 1 was performed with healthy volunteers, which were recruited under an approval from the Ethical Committee for Region Capital, Denmark. Interleukin 1β (IL-1β) and tumor necrosis factor alpha (TNF-α) (Figure 1) were quantified in supernatants by flow cytometry using a human inflammation cytometric bead array (CBA) according to manufacturer's instructions (BD) using a FACSarray flow cytometer. IL-1β, TNF- α, Interferon gamma (INF-y), Interleukin 12p70 (IL-12), and Interleukin 23 (IL-23) were analyzed using a human inflammation cytometric bead array (LegendPlex Biolegends) according to manufacturer's instructions.

murine BM-DC's [3] = assay: Flow cytometry of BM-DCs (p-NF-κB, p-CREB, MHCII, CD86); assay type: cell-based, mouse; settings: LPS + hBD2 100 μg/ml, flow cytometry, n = 6
Description: as §1
2 × 10^5 murine BM-DC's were seeded in 96-well round bottom plates and treated as described above. Cells were removed from the plate using Accutase (Sigma-Aldrich) and stained for 20 min at room temperature with Zombie Aqua (Biolegend) to exclude dead cells and extracellular antibodies against CD11c-APC (N418) (Miltenyi), MHCII-FITC (M5/114.15.2) (Miltenyi) and CD86-BV421 (GL-1) (Biolegend). For p-CREB staining cells were fixed and permeabilized with Foxp3 Staining Buffer Set (eBioscience) and stained with primary antibody phosphor-CREB mAb (Ser133; clone 87G3) (Cell Signaling) for 30 min in the dark at room temperature followed by secondary goat anti-rabbit IgG-DyLight™649 (Jackson ImmunoResearch) for 15 min at 4°C. To detect intracellular p-NF-κB BM-DCs were fixed with 2% paraformaldehyde (VWR) in PBS, permeabilized with 90% freezing methanol (Applichem) and stained with the primary antibodies to phosphor-NF-κB p65 (93H1) (Cell Signaling) for 60 min in the dark at room temperature followed by goat anti-rabbit IgG-PE-Cy7 (Santa Cruz Biotechnology) for 15 min at 4°C. PBS with 0,5% bovine serum albumin (Biomol) was used for all incubations and washing steps. At least 50,000 cells were acquired using a Canto-II flow cytometer (BD […]) with DIVA software (BD Biosciences) and were further analyzed using FlowJo 10.5 software (Tree Star).

[4] = LPS, hBD2 100 μg/ml, 24 h, LEGENDplex

In the case of “human β-defensin 2 (GIGDPVTCLKSGAICHPVFCPRRYKQIGTCGLPGTKCCKKP; not fully specified; ends and bridges not checked) [hBD2, Recombinant human β-defensin 2 expressed in E. coli as his-tagged thioredoxin fusion, cleaved and purified, natural tertiary structure]”, the “Outcome of DSS colitis” value ([1]; day 1-10, 2% DSS 7 days, n = 10) is reported as “significant improvement of colitis”, the “Therapeutic effect compared with anti-TNF-α antibody (300 μg/mouse i.p. day 1, 4, 8)” value ([1]; 2% DSS) is reported as “superior to anti-TNF-α treatment” and the “Histology score of the colon (mucosal damage)” value ([1]; 2% DSS, end of experiment, n = 10) is reported as “significantly reduced mucosal damage”. The DAI ([1]; 2% DSS, n = 10) was “improved the DAI”, the Weight change ([1]; 2% DSS, n = 10) was “prevented excessive weight loss” and the “TNF-α production in LPS-challenged murine BM-DCs” value (murine BM-DC's [2]; LPS, hBD2 100 μg/ml or 10 μg/ml, 24 h, ELISA) was “dose-dependently curbed TNF-α production”. The IL-10 secretion (murine BM-DC's [2]; [4]) was “substantial induction”, the “LPS-induced IL-1β secretion” value (murine BM-DC's [2]; [4]) was “alleviated” and the “LPS-induced IL-12p70 secretion” value (murine BM-DC's [2]; [4]) was “alleviated”. For the same substance, the “LPS-induced TNF-α secretion” value (murine BM-DC's [2]; [4]) was “alleviated”, the “Cytokine production after TLR-independent activation” value (murine BM-DC's [2]; cytokine cocktail TNF-α, IL-6, IL-1β (0.2 mg/ml each), hBD2 100 μg/ml) was “failed to modulate TLR-independent activation of BM-DCs” and the “Release of IL-1β” value (human primary PBMC's; LPS 20 pg/ml, n = 150–194) was “consistently mitigated release of both cytokines”. The “Release of TNF-α” value (human primary PBMC's; LPS 20 pg/ml, n = 150–194) was “consistently mitigated release of both cytokines”, the “Release of IL-1β” value (human primary PBMC's; Pam3CSK4 0.3 μg/ml) was “significantly reduced” and the “Release of TNF-α” value (human primary PBMC's; Pam3CSK4 0.3 μg/ml) was “significantly reduced”. For the same substance, the CREB phosphorylation (murine BM-DC's [3]; 60 min) was “increase in CREB phosphorylation”, the NF-κB phosphorylation (murine BM-DC's [3]; 60 min) was “reduced NF-κB phosphorylation” and the “Maturation status (MHCII and CD86)” value (murine BM-DC's [3]) was “reduced maturation status”.
